Assay results taken from US20120029187A1, “HALOALKYLSULFONANILIDE DERIVATIVE” (Nissan Chemical Industries, Ltd., priority 2009, published 2012).

Tests used:
Type in all cases: in vivo
[1] = system: transplanted rice; test: Test Example 1: preemergence treatment under submerged conditions, effect on crop; settings: dose 2.52 g/a
Summary of the method: (§1)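 Flooded-paddy preemergence assay; EC diluted with water, surface-applied at weed seeding; doses g/a; rice transplanted at 2.5 leaves; 0–5 mortality score after 3 weeks.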

[2] = system: velvetleaf; test: Test Example 4: herbicidal effect in foliage treatment; settings: dose 3.2 g/a, three weeks after application
Summary of the method: (§2)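 14-day greenhouse-grown plants (25–30° C) sprayed on foliage with diluted EC; dose as g/a; effect graded after 3 weeks.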

[3] = system: wild oat; test: as above; settings: dose 3.2 g/a, three weeks after application
Summary of the method: as §2

[4] = system: common lambsquater; test: as above; settings: dose 3.2 g/a, three weeks after application
Summary of the method: as §2

[5] = system: posumbu knotweed; test: as above; settings: dose 3.2 g/a, three weeks after application
Summary of the method: as §2

[6] = system: beadstraw; test: as above; settings: dose 3.2 g/a, three weeks after application
Summary of the method: as §2

[7] = system: common chickweed; test: as above; settings: dose 3.2 g/a, three weeks after application
Summary of the method: as §2

[8] = system: barnyardgrass; test: as above; settings: dose 3.2 g/a, three weeks after application
Summary of the method: as §2

[9] = system: common ragweed; test: as above; settings: dose 3.2 g/a, three weeks after application
Summary of the method: as §2

[10] = system: Italian ryegrass; test: as above; settings: dose 3.2 g/a, three weeks after application
Summary of the method: as §2

[11] = system: large crabgrass; test: as above; settings: dose 3.2 g/a, three weeks after application
Summary of the method: as §2

[12] = system: water foxtail; test: as above; settings: dose 3.2 g/a, three weeks after application
Summary of the method: as §2

[13] = system: redroot pigweed; test: as above; settings: dose 3.2 g/a, three weeks after application
Summary of the method: as §2

[14] = system: giant foxtail; test: as above; settings: dose 3.2 g/a, three weeks after application
Summary of the method: as §2

[15] = system: velvetleaf; test: Test Example 3: herbicidal effects in soil treatment; settings: dose 3.2 g/a
Summary of the method: (§3)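 Seeds were sown in sterilized diluvial soil and covered with about 1.5 cm of soil. Compounds, formulated as emulsifiable concentrates and diluted with water, were sprayed evenly over the soil surface at set doses in g/a. Herbicidal effect was scored on a rating scale three weeks later.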

[16] = system: wild oat; test: as above; settings: dose 3.2 g/a
Summary of the method: as §3

[17] = system: common lambsquater; test: as above; settings: dose 3.2 g/a
Summary of the method: as §3

[18] = system: posumbu knotweed; test: as above; settings: dose 3.2 g/a
Summary of the method: as §3

[19] = system: beadstraw; test: as above; settings: dose 3.2 g/a
Summary of the method: as §3

[20] = system: common chickweed; test: as above; settings: dose 3.2 g/a
Summary of the method: as §3

[21] = system: barnyardgrass; test: as above; settings: dose 3.2 g/a
Summary of the method: as §3

[22] = system: common ragweed; test: as above; settings: dose 3.2 g/a
Summary of the method: as §3

[23] = system: Italian ryegrass; test: as above; settings: dose 3.2 g/a
Summary of the method: as §3

[24] = system: large crabgrass; test: as above; settings: dose 3.2 g/a
Summary of the method: as §3

[25] = system: water foxtail; test: as above; settings: dose 3.2 g/a
Summary of the method: as §3

[26] = system: redroot pigweed; test: as above; settings: dose 3.2 g/a
Summary of the method: as §3

[27] = system: giant foxtail; test: as above; settings: dose 3.2 g/a
Summary of the method: as §3

[28] = system: ducksalad; test: Test Example 2: herbicidal effects during the vegetation period under submerged conditions; settings: treatment during the vegetation period under submerged conditions; dose 2.52 g/a
Summary of the method: (§4)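 Barnyardgrass, bulrush and ducksalad were co-sown in alluvial soil flooded to 4 cm and grown in a greenhouse at 25 to 30° C. At the 1- or 2-leaf stage, water-diluted emulsifiable concentrates went onto the water surface at set doses (g/a). Herbicidal effect was scored three weeks later on a graded scale.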

[29] = system: barnyardgrass; test: as above; settings: treatment during the vegetation period under submerged conditions; dose 2.52 g/a
Summary of the method: as §4

[30] = system: bulrush; test: as above; settings: treatment during the vegetation period under submerged conditions; dose 2.52 g/a
Summary of the method: as §4

[31] = system: ducksalad; test: Test Example 1: herbicidal effects in preemergence treatment under submerged conditions; settings: dose 2.52 g/a
Summary of the method: as §1

[32] = system: barnyardgrass; test: as above; settings: dose 2.52 g/a
Summary of the method: as §1

[33] = system: bulrush; test: as above; settings: dose 2.52 g/a
Summary of the method: as §1

## CC1(C)OCN(Cc2ccccc2N(S(=O)(=O)C(F)(F)F)S(=O)(=O)C(F)(F)F)C(=O)C1F (stereo not drawn) [II-37]
[1]
  a: transplanted rice, effect on crop (evaluation scale 0-5): 2 (mortality of at least 20% and less than 40%)
[2]
  I: velvetleaf, herbicidal effect: 3 (mortality of at least 40% and less than 70%)
[3]
  F: wild oat, herbicidal effect: 1 (mortality of at least 5% and less than 20%)
[4]
  L: common lambsquater, herbicidal effect: 2 (mortality of at least 20% and less than 40%)
[5]
  M: posumbu knotweed, herbicidal effect: 3 (mortality of at least 40% and less than 70%)
[6]
  O: beadstraw, herbicidal effect: 4 (mortality of at least 70% and less than 90%)
[7]
  N: common chickweed, herbicidal effect: 4 (mortality of at least 70% and less than 90%)
[8]
  A: barnyardgrass, herbicidal effect: 5 (mortality of 90% or above (nearly complete death))
[9]
  J: common ragweed, herbicidal effect: 4 (mortality of at least 70% and less than 90%)
[10]
  H: Italian ryegrass, herbicidal effect: 3 (mortality of at least 40% and less than 70%)
[11]
  D: large crabgrass, herbicidal effect: 4 (mortality of at least 70% and less than 90%)
[12]
  G: water foxtail, herbicidal effect: 5 (mortality of 90% or above (nearly complete death))
[13]
  K: redroot pigweed, herbicidal effect: 2 (mortality of at least 20% and less than 40%)
[14]
  E: giant foxtail, herbicidal effect: 3 (mortality of at least 40% and less than 70%)
[15]
  I: velvetleaf, herbicidal effect (evaluation scale 0-5): 0 (mortality of less than 5% (almost ineffective))
[16]
  F: wild oat, herbicidal effect (evaluation scale 0-5): 4 (mortality of at least 70% and less than 90%)
[17]
  L: common lambsquater, herbicidal effect (evaluation scale 0-5): 0 (mortality of less than 5% (almost ineffective))
[18]
  M: posumbu knotweed, herbicidal effect (evaluation scale 0-5): 0 (mortality of less than 5% (almost ineffective))
[19]
  O: beadstraw, herbicidal effect (evaluation scale 0-5): 4 (mortality of at least 70% and less than 90%)
[20]
  N: common chickweed, herbicidal effect (evaluation scale 0-5): 2 (mortality of at least 20% and less than 40%)
[21]
  A: barnyardgrass, herbicidal effect (evaluation scale 0-5): 5 (mortality of 90% or above (nearly complete death))
[22]
  J: common ragweed, herbicidal effect (evaluation scale 0-5): 5 (mortality of 90% or above (nearly complete death))
[23]
  H: Italian ryegrass, herbicidal effect (evaluation scale 0-5): 0 (mortality of less than 5% (almost ineffective))
[24]
  D: large crabgrass, herbicidal effect (evaluation scale 0-5): 5 (mortality of 90% or above (nearly complete death))
[25]
  G: water foxtail, herbicidal effect (evaluation scale 0-5): 5 (mortality of 90% or above (nearly complete death))
[26]
  K: redroot pigweed, herbicidal effect (evaluation scale 0-5): 3 (mortality of at least 40% and less than 70%)
[27]
  E: giant foxtail, herbicidal effect (evaluation scale 0-5): 3 (mortality of at least 40% and less than 70%)
[28]
  C: ducksalad, herbicidal effect (evaluation scale 0-5): 5 (mortality of 90% or above (nearly complete death))
[29]
  A: barnyardgrass, herbicidal effect (evaluation scale 0-5): 5 (mortality of 90% or above (nearly complete death))
[30]
  B: bulrush, herbicidal effect (evaluation scale 0-5): 5 (mortality of 90% or above (nearly complete death))
[31]
  C: ducksalad, herbicidal effect (evaluation scale 0-5): 5 (mortality of 90% or above (nearly complete death))
[32]
  A: barnyardgrass, herbicidal effect (evaluation scale 0-5): 5 (mortality of 90% or above (nearly complete death))
[33]
  B: bulrush, herbicidal effect (evaluation scale 0-5): 5 (mortality of 90% or above (nearly complete death))
